Data taken from patent US10723711B2, “1,1,1-trifluoro-3-hydroxypropan-2-yl carbamate derivatives and 1,1,1-trifluoro-4-hydroxybutan-2-yl carbamate derivatives as MAGL inhibitors” (PFIZER INC., priority 2015, dated 2020).
Read-outs that look alike come from different tables or passages of the source.

Legend:
Format in all cases: biochemical
[1] = biological target: T1, human recombinant Monoacylglycerol Lipase (Homo sapiens, UniProt Q99685); experiment: MAGL inhibition enzymatic assay, fluorogenic substrate 7-HCA, IC50 at T=0 min or after 30 minute incubation (T=30 min); details: geometric mean of 2-4 determinations unless otherwise indicated
T1 sequence (Q99685 1-303): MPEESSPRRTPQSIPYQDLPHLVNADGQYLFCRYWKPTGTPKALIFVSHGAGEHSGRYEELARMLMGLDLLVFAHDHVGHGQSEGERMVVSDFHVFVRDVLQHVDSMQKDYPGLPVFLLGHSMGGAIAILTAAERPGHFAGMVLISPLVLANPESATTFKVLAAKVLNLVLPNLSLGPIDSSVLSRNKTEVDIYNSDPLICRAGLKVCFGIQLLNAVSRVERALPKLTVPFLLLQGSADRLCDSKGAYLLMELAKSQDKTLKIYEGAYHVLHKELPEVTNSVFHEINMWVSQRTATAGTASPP
Protocol: An equal volume of 7-HCA in assay buffer with 10% DMSO was added either immediately (T=0 min) or after a 30 minute incubation (T=30 min) to initiate the reaction. […] After these dilutions, the final concentration of the test compound ranged from 3 μM to 0.03 nM. […] IC50 values were generated based on a four parameter fit model using ABASE software from IDBS.

[2] = biological target: T1, human recombinant Monoacylglycerol Lipase; experiment: MAGL inactivation, enzyme progress curves, kinact/KI; details: from enzyme progress curves, T = 0 min protocol; geometric mean of 2-4 determinations unless otherwise indicated
Protocol: Assessment of MAGL inhibition utilizes human recombinant Monoacylglycerol Lipase and the fluorogenic substrate 7-hydroxycoumarinyl arachidonate (7-HCA, Biomol ST-502). 400 nL of a test compound at decreasing concentration (ranging from 150 μM down to 1.5 nM) was spotted into a 384-well back plate (PerkinElmer, 6007279) using a Labcyte Echo, followed by addition of 10 μL of MAGL enzyme in assay buffer (50 mM HEPES, pH 7.4, 100 mM NaCl, 5 mM MgCl2, 0.1% Triton X-100 and 25% glycerin). An equal volume of 7-HCA in assay buffer with 10% DMSO was added either immediately (T=0 min) or after a 30 minute incubation (T=30 min) to initiate the reaction. The final concentration of MAGL enzyme was […] and 7-HCA substrate was 5 μM. After these dilutions, the final concentration of the test compound ranged from 3 μM to 0.03 nM. The reaction was allowed to progress for 60 minutes, after which the plate was read at an Ex/Em of 340/465. Percent inhibitions were calculated based on control wells containing no compound (0% inhibition) and a control compound (e.g., a MAGL inhibitor whose activity is known or was previously reported in the literature, such as one with about 100% inhibition). IC50 values were generated based on a four parameter fit model using ABASE software from IDBS. See e.g., Wang, Y. et al., “A Fluorescence-Based Assay for Monoacylglycerol Lipase Compatible with Inhibitor Screening,” Assay and Drug Development Technologies, 2008, Vol. 6 (3) pp 387-393 (reporting an assay for measuring MAGL activity).
To measure MAGL inactivation, the same protocol for the (T=0 min) MAGL inhibition IC50 assay was performed with data collected every minute to acquire enzyme progress curves at decreasing concentrations of compound.

[3] = biological target: T2, human recombinant FAAH (Homo sapiens, UniProt O00519); experiment: FAAH inhibition enzymatic assay, fluorescent substrate Arachidonoyl-AMC, 30 minute incubation; details: T = 30 min (30 minute incubation); geometric mean of 2-4 determinations unless otherwise indicated
T2 construct: purchased Cayman 10010183
T2 sequence (O00519 1-579): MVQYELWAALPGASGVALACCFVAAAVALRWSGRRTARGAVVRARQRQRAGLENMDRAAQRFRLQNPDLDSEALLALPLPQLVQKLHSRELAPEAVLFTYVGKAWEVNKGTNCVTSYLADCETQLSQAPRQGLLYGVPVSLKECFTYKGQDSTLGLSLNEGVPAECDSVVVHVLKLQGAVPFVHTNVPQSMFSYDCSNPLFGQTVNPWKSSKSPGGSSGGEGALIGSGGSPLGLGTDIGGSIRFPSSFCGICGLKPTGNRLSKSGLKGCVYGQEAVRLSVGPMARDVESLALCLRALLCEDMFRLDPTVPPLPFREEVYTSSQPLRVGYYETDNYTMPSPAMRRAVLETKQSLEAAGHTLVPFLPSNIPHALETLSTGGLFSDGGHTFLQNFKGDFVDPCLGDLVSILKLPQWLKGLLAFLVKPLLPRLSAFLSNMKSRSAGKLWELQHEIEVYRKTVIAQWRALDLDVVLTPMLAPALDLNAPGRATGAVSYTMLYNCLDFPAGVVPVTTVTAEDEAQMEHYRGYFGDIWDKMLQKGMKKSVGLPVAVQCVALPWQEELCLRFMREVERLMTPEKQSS
Protocol: Assessment of FAAH inhibition utilizes human recombinant FAAH and the fluorescent substrate, Arachidonoyl-AMC. 400 nL of a test compound at decreasing concentrations was spotted into a 384-well back plate (PerkinElmer, 6007279) using a Labcyte Echo, followed by addition of 10 μl of FAAH enzyme (Cayman 10010183) in assay buffer (50 mM Tris, pH 9.0, 1 mM EDTA). After a 30 minute incubation at room temperature, 10 μL of Arachidonyl-AMCA was added in assay buffer with 16% DMSO. Final concentration of FAAH enzyme was 0.0125 Units and AAMCA substrate was used at the Km of 5 μM. […] The reaction was allowed to progress for 60 minutes, after which the plate was read on a Molecular Devices FlexStation reader at an Ex/Em of 355/460. Percent inhibitions were calculated based on controls wells containing either no compound (0% inhibition) or a control compound (e.g., an FAAH inhibitor whose activity is known or was previously reported in the literature, such as one with about 100% inhibition). IC50 values were generated based on a four parameter fit model using ABASE software from IDBS.

[4] = T = 0 min (substrate added immediately), read-out: MAGL (T = 0 min) IC50
[5] = T = 30 min (30 minute incubation), read-out: MAGL (T = 30 min) IC50

Compound | IC50 [1, 4] | IC50 [1, 5] | MAGL kinact/KI [2] | IC50 [3]
O=C(O[C@H](CO)C(F)(F)F)N1CCC2(CC1)CN(S(=O)(=O)c1ccc(F)cc1)C(O)CO2 (mixture of isomers) [Example 29, (2R)-1,1,1-Trifluoro-3-hydroxypropan-2-yl 4-[(4-fluorophenyl)sulfonyl]-3-hydroxy-1-oxa-4,9-diazaspiro[5.5]undecane-9-carboxylate] | 109 nM | 24 nM | 85270 1/s per M | 
CC(c1ccc(F)cc1)N1CCOC2(CCN(C(=O)O[C@H](CO)C(F)(F)F)CC2)C1 (mixture of isomers) [Example 43] | 145 nM | 13 nM | 3478 1/s per M | > 30000 nM
O=C(O)C(F)(F)F.O=C(O[C@H](CO)C(F)(F)F)N1CCC2(CC1)CC(c1ccc(F)cn1)CO2 (mixture of isomers) [Example 97, (2R)-1,1,1-Trifluoro-3-hydroxypropan-2-yl 3-(5-fluoropyridin-2-yl)-1-oxa-8-azaspiro[4.5]decane-8-carboxylate, trifluoroacetate salt] | 192 nM | 20 nM | 1897 1/s per M | > 30000 nM
Cc1ccc(C2COC3(CCN(C(=O)O[C@H](CO)C(F)(F)F)CC3)C2)cn1 (mixture of isomers) [Example 123] | 349 nM | 30 nM |  | 24600 nM
O=C(O[C@H](CO)C(F)(F)F)N1CCC2(CC1)CC(OCc1ccccc1)CO2 (mixture of isomers) [Example 132] | 130 nM | 12 nM | 8426 1/s per M | 
O=C(O[C@H](CO)C(F)(F)F)N1CCC2(CC1)CN(CC1CCCOC1)CCO2 (single isomer, unassigned) [Example 4] | 166 nM | 19 nM | 5489 1/s per M | 
CC1N(S(=O)(=O)c2ccc(F)cc2)CCOC12CCN(C(=O)O[C@H](CO)C(F)(F)F)CC2 (single isomer, unassigned) [Example 71] | 99 nM | 17 nM | 9358 1/s per M | 
O=C(O[C@H](CO)C(F)(F)F)N1CCC2(CC1)CC(n1cccn1)CO2 (single isomer, unassigned) [Example 103] | 334 nM | 30 nM |  | > 30000 nM
COc1ccc(-n2ccc([C@H]3[C@@H]4CN(C(=O)O[C@H](CO)C(F)(F)F)C[C@@H]43)n2)nc1 [Example 1, (2R)-1,1,1-trifluoro-3-hydroxypropan-2-yl (1α,5α,6α)-6-[1-(5-methoxypyridin-2-yl)-1H-pyrazol-3-yl]-3-azabicyclo[3.1.0]hexane-3-carboxylate] | 85 nM | 14 nM | 7806 1/s per M | 
CN([C@H]1COC2(CCN(C(=O)O[C@H](CO)C(F)(F)F)CC2)C1)S(=O)(=O)c1ccccc1 [Example 15, (2R)-1,1,1-trifluoro-3-hydroxypropan-2-yl (3R)-3-[methyl(phenylsulfonyl)amino]-1-oxa-8-azaspiro[4.5]decane-8-carboxylate] | 17 nM | 2 nM | 44421 1/s per M | 
O=C(O[C@H](CO)C(F)(F)F)N1C[C@@H]2[C@H](C1)[C@H]2c1ccn(Cc2ccccn2)n1 [Example 37] | 357 nM | 27 nM | 1616 1/s per M | 
O=C(O[C@H](CO)C(F)(F)F)N1CCC2(CC1)CN(Cc1ccc(F)cc1)CCO2 [Example 42] | 304 nM | 32 nM | 2591 1/s per M | 
Cc1ccc(OC2CCN(C(=O)O[C@H](CO)C(F)(F)F)CC2)nc1 [Example 57] | 126 nM | 10 nM | 5998 1/s per M | 
Cc1ccc(S(=O)(=O)N2CCOC3(CCN(C(=O)O[C@H](CO)C(F)(F)F)CC3)C2)cc1Cl [Example 59] | 15 nM | 1 nM | 59048 1/s per M | 
O=C(O[C@H](CO)C(F)(F)F)N1CCC2(CC1)CN(S(=O)(=O)c1ccc(F)c(Cl)c1)CCO2 [Example 60] | 37 nM | 2 nM | 19870 1/s per M | 
Cc1cnc(OC2CCN(C(=O)O[C@H](CO)C(F)(F)F)CC2)c(C)c1 [Example 61] | 53 nM | 5 nM | 7304 1/s per M | 
O=C(O[C@H](CO)C(F)(F)F)N1CCC2(CC1)CN(S(=O)(=O)NCc1ccccc1)CCO2 [Example 67] | 29 nM | 4 nM | 30591 1/s per M | 
COc1ccc(-n2ccc([C@H]3[C@@H]4CN(C(=O)O[C@H](CO)C(F)(F)F)C[C@@H]43)n2)cn1 [Example 69] | 104 nM | 11 nM | 4621 1/s per M | 
C#Cc1ccc(-n2ccc([C@H]3[C@@H]4CN(C(=O)O[C@@H](CO)C(F)(F)F)C[C@@H]43)n2)cc1 [Example 82] | > 2750 nM | 598 nM |  | 
COP(=O)(OC)OC[C@@H](OC(=O)N1CCC2(CC1)CN(S(=O)(=O)c1ccc(F)cc1)CCO2)C(F)(F)F [Example 86] | 97 nM | 8 nM | 132 1/s per M | 
CCOP(=O)(OCC)OC[C@@H](OC(=O)N1CCC2(CC1)CN(S(=O)(=O)c1ccc(F)cc1)CCO2)C(F)(F)F [Example 88] | > 3000 nM | > 3000 nM |  | 
C[N+](C)(C)CCOP(=O)([O-])OC[C@@H](OC(=O)N1CCC2(CC1)CN(S(=O)(=O)c1ccc(F)cc1)CCO2)C(F)(F)F [Example 90] | > 3000 nM | > 3000 nM |  | 
O=C(O[C@H](CO)C(F)(F)F)N1CCC2(CC1)CCN(C(=O)c1ccccn1)C2 [Example 128] | 423 nM | 50 nM |  | 
CN(C(=O)c1ccccn1)[C@H]1COC2(CCN(C(=O)O[C@H](CO)C(F)(F)F)CC2)C1 [Example 146] | 539 nM | 48 nM |  | 
CN(C1COC2(CCN(C(=O)OC(COP(=O)(O)O)C(F)(F)F)CC2)C1)S(=O)(=O)c1ccccc1 (centres unmarked) [Example 148] | > 3000 nM | > 1230 nM |  | 
